Experimental data from patent US20130059916A1, “BIGUANIDE COMPOUNDS AND ITS USE FOR TREATING CANCER” (priority 2010, published 2013).

How the values were obtained:
[1] = system: human G361 cells; test: Cell viability of human G361 cells, FIG. 2; type: cell-based; details: metformin 0 to 20 mM
From the text: AICAR [aminoimidazole carboxamide ribonucleotide] an AMPK agonist, is used as reference.

[2] = system: melanoma cells; test: TUNEL assay of mouse tumor sections, FIG. 4'; type: in vivo; details: tumor sections of metformin-treated mice
[3] = system: AMPK; test: Cell viability after AMPK disruption using si-RNA (Western Blot), FIG. 3; type: cell-based
[4] = system: normal human melanocytes; test: Cell viability of normal human melanocytes, FIG. 1; type: cell-based; details: 0 to 20 mM, 72 h and 96 h
Procedure: (§1) FIG. 1 discloses a study on viability cells of human melanomas cells (A375) in comparison to normal human melanocytes.
(§2) Doses of metformin used for this experiment are in a range between 0 to 20 mM at 72 h and 96 h.

[5] = system: B16 melanoma cells; test: Syngenic model, allograft of B16 melanoma cells, FIG. 4''; details: B16 allograft in C57B16 mice
[6] = system: human melanomas cells (A375); test: Cell viability of human melanoma cells (A375), FIG. 1; type: cell-based; details: 0 to 20 mM, 72 h and 96 h
Procedure: as §1, §2

[7] = system: melanoma cells; test: Cell death by FACS analysis of propidium iodide uptake, FIG. 1''; type: cell-based
Procedure: Cell death was measured by FACS analysis of propidium iodide uptake.

[8] = system: A375 melanoma cells; test: Mouse model of melanoma xenograft (A375), FIG. 4; type: in vivo, athymic nude mice; details: 2 mg/mouse/day by injection, after 23 days of treatment
[9] = system: freshly human melanoma cells isolated from patients; test: Cell viability of freshly isolated human melanoma cells from patients, FIG. 1'; type: cell-based; details: 0 to 10 mM, 72 h
Procedure: FIG. 1′ discloses a study on viability cells of freshly human melanoma cells isolated from patients.
Doses of metformin used for this experiment are in a range between 0 to 10 mM at 72 h.

| Compound | percentage of cell viability [1] | TUNEL-positive cells in the tumors [2] | dependence of the effect on cell viability on AMPK [3] | effect on cell viability of melanocytes (normal cells) [4] | volume of tumor [5] | weight of tumor [5] | effect on cell viability of melanoma cells [6] | cell death (propidium iodide uptake) [7] | volume of melanoma [8] | weight of melanoma [8] | effect on cell viability of melanoma cells [9] |
| --- | --- | --- | --- | --- | --- | --- | --- | --- | --- | --- | --- |
| NC(=O)c1ncn([C@@H]2O[C@H](CO)[C@@H](O)[C@H]2O)c1N [AICAR, aminoimidazole carboxamide ribonucleotide] | no significative effect |  |  |  |  |  |  |  |  |  |  |
| CN(C)C(=N)NC(=N)N [Metformin, N,N-dimethylimidodicarbonimidic diamide] | significant dose dependent decrease | increase in TUNEL-positive cells | independent on AMPK | no effect | diminished | diminished | dose dependent effect | induces a dose dependent cell death | decreases significantly | decreases significantly | dose dependent effect |
